In patent US10125139B2, “Pesticidally active polycyclic derivatives with sulfur substituted five-membered ring heterocycles” (Syngenta Participations AG, priority 2015, dated 2018):

What was measured:
Type in all cases: in vivo
[1] = tested on: Diabrotica balteata (Corn Root Worm); assay: Example B2: Diabrotica balteata, sprayed maize sprouts, L2 larvae; conditions: Diabrotica balteata, 96 h; application rate of 200 ppm; 4 days after infestation; L2 larvae; read-out: effect in at least one of the two categories (mortality or growth inhibition)
Protocol: Example B2: Diabrotica balteata (Corn Root Worm)
Maize sprouts placed onto an agar layer in 24-well microtiter plates were treated with aqueous test solutions prepared from 10,000 ppm DMSO stock solutions by spraying. After drying, the plates were infested with L2 larvae (6 to 10 per well). The samples were assessed for mortality and growth inhibition in comparison to untreated samples 4 days after infestation. The following compounds gave an effect of at least 80% in at least one of the two categories (mortality or growth inhibition) at an application rate of 200 ppm:
(§1) Insecticidal action against Diabrotica balteata (Corn root worm), Plutella xylostella (Diamond black moth), and Spodoptera littoralis (Egyptian cotton leaf worm). The tests were carried out as described in biological examples B2, B8 and B9, respectively, with the larval feeding/contact activity (mortality only) being reported as Breakpoint (BP80) values in parts per million (i.e. the lowest concentration which gives 80% larval mortality).

[2] = tested on: Myzus persicae (Green Peach Aphid); assay: Example B5: Myzus persicae feeding/contact activity, sunflower leaf discs; conditions: foliar, 144 h, application rate of 200 ppm, 6 days after infestation
Protocol: Example B5: Myzus persicae (Green Peach Aphid): Feeding/Contact Activity
Sunflower leaf discs were placed onto agar in a 24-well microtiter plate and sprayed with aqueous test solutions prepared from 10,000 ppm DMSO stock solutions. After drying, the leaf discs were infested with an aphid population of mixed ages. The samples were assessed for mortality 6 days after infestation.

[3] = tested on: Plutella xylostella (Diamond Back Moth); assay: Example B8: Plutella xylostella, artificial diet, L2 larvae; conditions: Plutella xylostella, 120 h; application rate of 200 ppm; 5 days after infestation; L2 larvae; read-out: effect in at least one of the two categories (mortality or growth inhibition)
Protocol: Example B8: Plutella xylostella (Diamond Back Moth)
24-well microtiter plates with artificial diet were treated with aqueous test solutions prepared from 10,000 ppm DMSO stock solutions by pipetting. After drying, the plates were infested with L2 larvae (10 to 15 per well). The samples were assessed for mortality and growth inhibition in comparison to untreated samples 5 days after infestation. The following compounds gave an effect of at least 80% in at least one of the two categories (mortality or growth inhibition) at an application rate of 200 ppm:
as §1

[4] = tested on: Spodoptera littoralis (Egyptian Cotton Leaf Worm); assay: Example B9: Spodoptera littoralis, cotton leaf discs, L1 larvae; conditions: Spodoptera littoralis, foliar, 72 h; application rate of 200 ppm; 3 days after infestation; L1 larvae
Protocol: Example B9: Spodoptera littoralis (Egyptian Cotton Leaf Worm)
Cotton leaf discs were placed onto agar in 24-well microtiter plates and sprayed with aqueous test solutions prepared from 10,000 ppm DMSO stock solutions. After drying the leaf discs were infested with five L1 larvae. The samples were assessed for mortality, anti-feeding effect, and growth inhibition in comparison to untreated samples 3 days after infestation. Control of Spodoptera littoralis by a test sample is given when at least one of the categories mortality, anti-feedant effect, and growth inhibition is higher than the untreated sample.
as §1

[5] = tested on: Spodoptera littoralis (Egyptian Cotton Leaf Worm); assay: Example B10: Spodoptera littoralis systemic activity, lettuce grown on treated agar; conditions: 144 h, test rate of 12.5 ppm, 6 days after infestation, read-out: effect in at least one of the three categories (mortality, anti-feeding, or growth inhibition)
Excerpt: Example B10: Spodoptera littoralis (Egyptian Cotton Leaf Worm) Systemic Activity
Test compounds were applied by pipette from 10,000 ppm DMSO stock solutions into 24-well plates and mixed with agar. Lettuce seeds were placed onto the agar and the multi well plate was closed by another plate which contained also agar. After 7 days the compound was absorbed by the roots and the lettuce grew into the lid plate. The lettuce leaves were then cut off into the lid plate. Spodoptera eggs were pipetted through a plastic stencil onto a humid gel blotting paper and the lid plate was closed with it. The samples were assessed for mortality, anti-feedant effect and growth inhibition in comparison to untreated samples 6 days after infestation. The following compounds gave an effect of at least 80% in at least one of the three categories (mortality, anti-feeding, or growth inhibition) at a test rate of 12.5 ppm: […]

[6] = tested on: Tetranychus urticae (Two-Spotted Spider Mite); assay: Example B11: Tetranychus urticae feeding/contact activity, bean leaf discs; conditions: foliar, 192 h
Protocol: Example B11: Tetranychus urticae (Two-Spotted Spider Mite): Feeding/Contact Activity
Bean leaf discs on agar in 24-well microtiter plates were sprayed with aqueous test solutions prepared from 10,000 ppm DMSO stock solutions. After drying the leaf discs were infested with a mite population of mixed ages. The samples were assessed for mortality on mixed population (mobile stages) 8 days after infestation.

[7] = tested on: Euschistus heros (Neotropical Brown Stink Bug); assay: Example B3: Euschistus heros, sprayed soybean leaves, N2 nymphs; conditions: 120 h, application rate of 200 ppm, 5 days after infestation, read-out: effect in at least one of the two categories (mortality or growth inhibition)
Protocol: Example B3: Euschistus heros (Neotropical Brown Stink Bug)
Soybean leaves on agar in 24-well microtiter plates were sprayed with aqueous test solutions prepared from 10,000 ppm DMSO stock solutions. After drying the leaves were infested with N2 nymphs. The samples were assessed for mortality and growth inhibition in comparison to untreated samples 5 days after infestation. The following compounds gave an effect of at least 80% in at least one of the two categories (mortality or growth inhibition) at an application rate of 200 ppm: […]

[8] = tested on: Myzus persicae (Green Peach Aphid); assay: Example B7: Myzus persicae intrinsic activity, sucrose solution through Parafilm; conditions: 120 h, test rate of 12 ppm, 5 days after infestation
Excerpt: Example B7: Myzus persicae (Green Peach Aphid). Intrinsic Activity
Test compounds prepared from 10,000 ppm DMSO stock solutions were applied by pipette into 24-well microtiter plates and mixed with sucrose solution. The plates were closed with a stretched Parafilm. A plastic stencil with 24 holes was placed onto the plate and infested pea seedlings were placed directly on the Parafilm. The infested plate was closed with a gel blotting paper and another plastic stencil and then turned upside down. The samples were assessed for mortality 5 days after infestation.

[9] = tested on: Frankliniella occidentalis (Western Flower thrips); assay: Example B4: Frankliniella occidentalis feeding/contact activity, sunflower leaf discs; conditions: foliar, 168 h, application rate of 200 ppm, 7 days after infestation, population of mixed ages
Protocol: Example B4: Frankliniella occidentalis (Western Flower thrips): Feeding/Contact Activity
Sunflower leaf discs were placed on agar in 24-well microtiter plates and sprayed with aqueous test solutions prepared from 10,000 DMSO stock solutions. After drying the leaf discs were infested with a Frankliniella population of mixed ages. The samples were assessed for mortality 7 days after infestation.

[10] = tested on: Myzus persicae (Green Peach Aphid); assay: Example B6: Myzus persicae systemic activity, pea seedling roots in test solution; conditions: 144 h, test rate of 24 ppm, 6 days after placing seedlings into test solutions
Protocol: Example B6: Myzus persicae (Green Peach Aphid). Systemic Activity
Roots of pea seedlings infested with an aphid population of mixed ages were placed directly into aqueous test solutions prepared from 10,000 DMSO stock solutions. The samples were assessed for mortality 6 days after placing seedlings into test solutions.

[11] = tested on: Bemisia tabaci (Cotton White Fly); assay: Example B1: Bemisia tabaci feeding/contact activity, cotton leaf discs; conditions: foliar, 144 h, application rate of 200 ppm, 6 days after incubation, adult white flies
Protocol: Example B1: Bemisia tabaci (Cotton White Fly): Feeding/Contact Activity
Cotton leaf discs were placed on agar in 24-well microtiter plates and sprayed with aqueous test solutions prepared from 10,000 ppm DMSO stock solutions. After drying the leaf discs were infested with adult white flies. The samples were checked for mortality 6 days after incubation.

CCS(=O)(=O)c1cc(I)sc1-c1nc2cc(C(F)(F)F)ncc2n1C [Example I-1, 2-(3-ethylsulfonyl-5-iodo-2-thienyl)-3-methyl-6-(trifluoromethyl)imidazo[4,5-c]pyridine]
≥ 80%: percent effect (mortality or growth inhibition) at 200 ppm [1] | mortality at 200 ppm [2] | percent effect (mortality or growth inhibition) at 200 ppm [3] | percent control (mortality, anti-feedant effect or growth inhibition) at 200 ppm [4] | percent effect (mortality, anti-feeding or growth inhibition) at 12.5 ppm [5] | mortality at 200 ppm [6]

CCSc1cc(I)sc1-c1nc2cc(SC(F)(F)F)ncc2n1C [Example I-7, 2-(3-ethylsulfanyl-5-iodo-2-thienyl)-3-methyl-6-(trifluoromethylsulfanyl)imidazo[4,5-c]pyridine]
≥ 80%: percent effect (mortality or growth inhibition) at 200 ppm [1] | percent effect (mortality or growth inhibition) at 200 ppm [7] | mortality at 200 ppm [2] | mortality at 12 ppm [8] | percent effect (mortality or growth inhibition) at 200 ppm [3] | percent effect (mortality, anti-feeding or growth inhibition) at 12.5 ppm [5]

CCSc1cc(-c2ccc(Cl)cc2)sc1-c1nc2cc(C(F)(F)F)ncc2n1C [Example P-6, 2-[5-(4-chlorophenyl)-3-ethylsulfanyl-2-thienyl]-3-methyl-6-(trifluoromethyl)imidazo[4,5-c]pyridine]
≥ 80%: percent effect (mortality or growth inhibition) at 200 ppm [1] | percent effect (mortality or growth inhibition) at 200 ppm [7] | mortality at 200 ppm [9] | percent effect (mortality or growth inhibition) at 200 ppm [3] | percent control (mortality, anti-feedant effect or growth inhibition) at 200 ppm [4] | mortality at 200 ppm [6]

CCS(=O)(=O)c1nc(C2CC2)sc1-c1nc2cc(C(F)(F)F)ncc2n1C [Example P-13, 2-cyclopropyl-4-ethylsulfonyl-5-[3-methyl-6-(trifluoromethyl)imidazo[4,5-c]pyridin-2-yl]thiazole]
≥ 80%: percent effect (mortality or growth inhibition) at 200 ppm [1] | mortality at 200 ppm [2] | mortality at 24 ppm [10] | percent effect (mortality or growth inhibition) at 200 ppm [3] | percent control (mortality, anti-feedant effect or growth inhibition) at 200 ppm [4] | percent effect (mortality, anti-feeding or growth inhibition) at 12.5 ppm [5]

CCSc1nc(C2CC2)sc1-c1nc2cc(C(F)(F)F)ncc2n1C [Example P-14, 2-cyclopropyl-4-ethylsulfanyl-5-[3-methyl-6-(trifluoromethyl)imidazo[4,5-c]pyridin-2-yl]thiazole]
≥ 80%: mortality at 200 ppm [11] | percent effect (mortality or growth inhibition) at 200 ppm [1] | mortality at 200 ppm [2] | mortality at 12 ppm [8] | percent effect (mortality or growth inhibition) at 200 ppm [3] | percent control (mortality, anti-feedant effect or growth inhibition) at 200 ppm [4]
